Earlier results as cited in patent US5807732A, “GDP-L-fucose: β-D-galactoside 2-α-L-fucosyltransferases, DNA sequences encoding the same, method for producing the same and a method of genotyping a person” (priority 1995, dated 1998).
Where “and” joins values, the source holds several entries; their conditions need not be identical. Equal values may be shown once. Read-outs that look alike come from different tables or passages of the source.

T1: H α(1,2)fucosyltransferase (Homo sapiens, UniProt P19526)
T1 sequence (P19526 1-365): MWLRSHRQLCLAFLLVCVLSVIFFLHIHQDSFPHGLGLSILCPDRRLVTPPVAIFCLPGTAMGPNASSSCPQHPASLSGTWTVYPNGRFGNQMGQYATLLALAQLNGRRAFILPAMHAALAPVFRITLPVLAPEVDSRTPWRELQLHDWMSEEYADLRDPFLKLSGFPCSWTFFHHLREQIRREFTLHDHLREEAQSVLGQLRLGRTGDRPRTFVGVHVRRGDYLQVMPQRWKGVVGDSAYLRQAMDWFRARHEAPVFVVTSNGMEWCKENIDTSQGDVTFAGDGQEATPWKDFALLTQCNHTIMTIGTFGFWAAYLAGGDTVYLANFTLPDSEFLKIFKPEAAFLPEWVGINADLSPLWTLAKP


Legend:
[1] = tested on: Secretor α(1,2)fucosyltransferase; conditions: read-out: Apparent Km
[2] = target: T1, H α(1,2)fucosyltransferase; conditions: enzyme H; literature values; read-out: Apparent Km
transfected COS-7 cells = conditions: expressed in COS-7 cells
[3] = enzyme Secretor, literature values

Molecule | Km [1, 3] | Km [2] | also measured
C[C@@H]1O[C@H](OP(=O)(O)OP(=O)(O)OC[C@H]2O[C@@H](n3cnc4c(=O)[nH]c(N)nc43)[C@H](O)[C@@H]2O)[C@@H](O)[C@H](O)[C@@H]1O [GDP-fucose] | 108 µM and 123 µM | – | –
COC1O[C@H](CO)[C@@H](O)[C@H](O[C@@H]2O[C@H](CO)[C@H](O)[C@H](O)[C@H]2O)[C@H]1NC(C)=O (stereo partly drawn) [lacto-N-biose I (--O--Me)] | 1400 µM | 3500 µM | –
CC(=O)N[C@H]1C(O)O[C@H](CO)[C@@H](O)[C@@H]1O[C@@H]1O[C@H](CO)[C@H](O)[C@H](O)[C@H]1O (stereo partly drawn) [lacto-N-biose I] | 1000 µM | 2000 µM | –
CC(=O)N[C@H]1[C@H](O[C@H]2[C@@H](O)[C@@H](CO)O[C@@H](O[C@H]3[C@H](O)[C@@H](O)C(O)O[C@@H]3CO)[C@@H]2O)O[C@H](CO)[C@@H](O)[C@@H]1O[C@@H]1O[C@H](CO)[C@H](O)[C@H](O)[C@H]1O (stereo partly drawn) [lacto-N-tetraose] | 1600 µM | – | –
OC[C@H]1O[C@@H](Oc2ccccc2)[C@H](O)[C@@H](O)[C@H]1O [phenyl-β-D-galactoside] | – | – | Km ([1]; human Secretor α(1,2)fucosyltransferase partially purified from human milk): 15100 µM; Km ([1]; human Secretor α(1,2)fucosyltransferase purified from human serum): 11400 µM
H blood group cDNA-encoded α(1,2)fucosyltransferase: human H blood group (FUT1) α(1,2)fucosyltransferase expressed from cDNA in COS-7 cells (protein, UniProt P19526 1-365, looked up) Galactoside …: MWLRSHRQLCLAFLLVCVLSVIFFLHIHQDSFPHGLGLSILCPDRRLVTPPVAIFCLPGTAMGPNASSSCPQHPASLSGTWTVYPNGRFGNQMGQYATLLALAQLNGRRAFILPAMHAALAPVFRITLPVLAPEVDSRTPWRELQLHDWMSEEYADLRDPFLKLSGFPCSWTFFHHLREQIRREFTLHDHLREEAQSVLGQLRLGRTGDRPRTFVGVHVRRGDYLQVMPQRWKGVVGDSAYLRQAMDWFRARHEAPVFVVTSNGMEWCKENIDTSQGDVTFAGDGQEATPWKDFALLTQCNHTIMTIGTFGFWAAYLAGGDTVYLANFTLPDSEFLKIFKPEAAFLPEWVGINADLSPLWTLAKP | – | – | distribution of α(1,2)fucosyltransferase activity between cells and media (transfected COS-7 cells): largely cell-associated
